Measured values as given in patent publication US8575135B2 (Gilead Sciences, Inc., priority 2011, dated 2013).
Like-named read-outs stand apart in the source and are kept apart here.

Columns and labels:
Assay in all cases: microbe, parasite or virus in culture
Settings in all cases: Hepatitis C virus
[1] = system: stable HCV 1a RLuc replicon cells (genotype 1a H77 replicon); type: cell-based
Procedure: (§1) Evaluation of Cell-Based Anti-HCV Activity:
(§2) Antiviral potency (EC50) was determined using a Renilla luciferase (RLuc)-based HCV replicon reporter assay. […] To perform the assay for genotype 2a (with M31 present in NS5A) or 2b, NS5A chimeric genotype 2a JFH-1 replicons that encodes a RLuc-Neo reporter and either genotype 2a J6 strain NS5A gene or genotype 2b MD2b-1 strain NS5A gene (both with M31 present) respectively, were either transiently transfected (t) into Huh-Lunet cells or were established as stably replicating replicon cells (s) is provided. Either cells were dispensed into 384-well plates for EC50 assays. To perform the assay for genotype 3 and 4, NS5A chimeric genotype 1b Con1 replicons that encodes a Pi-RLuc reporter and either genotype 3a S52 strain NS5A gene or genotype 4a ED43 strain NS5A gene respectively, were transiently transfected (t) into Huh-Lunet cells, which were subsequently dispensed into 384-well plates. Compounds were dissolved in DMSO at a concentration of 10 mM and diluted in DMSO either manually or using an automated pipeting instrument. Serially 3-fold diluted compounds were either manually mixed with cell culture media and added to the seeded cells or directly added to the cells using an automated instrument. […] 72 hours later, cells were lysed and Renilla luciferase activity quantified as recommended by the manufacturer (Promega-Madison, Wis.). Non-linear regression was performed to calculate EC50 values.

[2] = system: stable HCV 2a JFH-1 Rluc replicon cells (L31 present in NS5A); type: cell-based
[3] = system: NS5A chimeric genotype 1b Con1 replicon with genotype 3a S52 strain NS5A gene; type: cell-based, HCV
Procedure: as §1, §2

[4] = system: NS5A chimeric genotype 2a JFH-1 replicon with genotype 2a J6 strain NS5A gene (M31 present); type: cell-based, HCV
Procedure: as §1, §2

[5] = system: NS5A chimeric genotype 2a JFH-1 replicon with genotype 2b MD2b-1 strain NS5A gene (M31 present); type: cell-based, HCV
Procedure: as §1, §2

[6] = system: NS5A chimeric genotype 1b Con1 replicon with genotype 4a ED43 strain NS5A gene; type: cell-based, HCV

| SMILES | EC50 ([1]; read-out: 1a) [nM] | EC50 ([1]; read-out: 1a (nM)) [nM] | EC50 ([2]; read-out: 2a JFH) [nM] | EC50 ([2]; read-out: 2a JFH (nM)) [nM] | EC50 ([3]; read-out: 3a) [nM] | EC50 ([3]; read-out: 3a (nM)) [nM] | EC50 ([4]; read-out: 2a J6) [nM] | EC50 ([4]; read-out: 2a J6 (s) (nM)) [nM] | EC50 ([5]; read-out: 2b) [nM] | EC50 ([5]; read-out: 2b (s) (nM)) [nM] | EC50 ([6]; read-out: 4a) [nM] | EC50 ([6]; read-out: 4a (s) (nM)) [nM] | EC50 ([6]; read-out: 4a (t) (nM)) [nM] | EC50 ([4]; read-out: 2a Jb (t) (nM)) [nM] | EC50 ([5]; read-out: 2b (t) (nM)) [nM] |
| --- | --- | --- | --- | --- | --- | --- | --- | --- | --- | --- | --- | --- | --- | --- | --- |
| COC[C@H]1C[C@@H](c2nc3ccc4cc5c(cc4c3[nH]2)OCc2cc(-c3ccc4nc([C@@H]6CCCN6C(=O)[C@@H](NC(=O)OC)C(C)C)[nH]c4c3)ccc2-5)N(C(=O)[C@@H](NC(=O)OC)C(C)C)C1 | < 1 | 0.003 | < 1 | 0.021 | 1 to 4.99 | 1.09 | > 5 | 44.4 | > 5 | 44.4 | < 1 | 0.025 | 0.015 | – | – |
| COC[C@@H]1C[C@@H](c2nc3c([nH]2)-c2cc4c(cc2CC3)-c2ccc(-c3cnc([C@@H]5CCCN5C(=O)[C@@H](NC(=O)OC)C(C)C)[nH]3)cc2CO4)N(C(=O)[C@@H](NC(=O)OC)C(C)C)C1 [Compound 493] | < 1 | 0.036 | < 1 | 0.008 | < 1 | 0.05 | > 5 | 5.04 | < 1 | 0.65 | < 1 | 0.018 | 0.013 | – | – |
| CCC(=O)N[C@@H](C(=O)N1CCC[C@H]1c1ncc(-c2ccc3c(c2)COc2cc4c(ccc5nc([C@@H]6CCCN6C(=O)[C@@H](NC(=O)OC)C(C)C)[nH]c54)cc2-3)[nH]1)c1ccccc1 [Compound 499] | < 1 | 0.057 | < 1 | 0.008 | < 1 | 0.01 | < 1 | 0.206 | < 1 | 0.04 | < 1 | 0.005 | 0.021 | – | – |
| COC(=O)N[C@H](C(=O)N1CCC[C@H]1c1ncc(-c2ccc3c(c2)COc2cc4c(cc2-3)CCc2nc([C@@H]3CCCN3C(=O)[C@H](NC(=O)C3CC3)c3ccccc3)[nH]c2-4)[nH]1)C(C)C [Compound 503] | < 1 | 0.062 | < 1 | 0.012 | < 1 | 0.016 | < 1 | 0.155 | < 1 | 0.037 | < 1 | 0.025 | 0.028 | – | – |
| COC[C@H]1C[C@@H](c2nc3ccc4cc5c(cc4c3[nH]2)OCc2cc(-c3cnc([C@@H]4CCCN4C(=O)[C@H](NC(=O)C4CC4)c4ccccc4)[nH]3)ccc2-5)N(C(=O)[C@@H](NC(=O)OC)C(C)C)C1 [Compound 510] | < 1 | 0.021 | < 1 | 0.009 | < 1 | 0.008 | < 1 | 0.018 | < 1 | 0.02 | < 1 | 0.072 | 0.016 | 0.007 | 0.017 |
